Measured values: patent US6825230B2, “Spiro and dispiro 1,2,4-trixolane antimalarials” (Medicines for Malaria Venture MMV, priority 2002, dated 2004)
In brackets after ≈: the same amount, converted by molar mass. Counter-ions that a name gives are not always drawn. Like-named read-outs stand apart in the source and are kept apart here.

Experiments:
[1] = system: Schistosoma mansoni adult worms (49-day-old); test: Effect on adult schistosomes (49-day-old) in infected mice; format: in vivo; details: for % reduction of adult worms growth at day 49 after per os application of 400 mg/kg, TWR (%) / Adult worms day 49, per os 400 mg/kg, DEAD WORM (%): single 400 mg/kg per os
Description: Mice were infected with 100 Schistosoma mansoni cercariae on day 49 post-treatment. Each group was treated per os with OZ compounds at single doses of 200, 400, and 600 mg/kg. Untreated mice served as the control. All groups were killed 4 weeks after treatment and the liver and intestine were removed and separated. The liver and intestine were compressed and alive male and female worms could be seen and counted.

[2] = system: chloroquine-sensitive NF54 strain of P. falciparum; test: In vitro antimalarial semiautomated microdilution assay ([3H]-hypoxanthine incorporation), NF54 strain; format: cell-based, Plasmodium falciparum; details: for IC50: Plasmodium falciparum
Outline: (§1)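 Asynchronous stock-culture parasites (intraerythrocytic forms), serial compound dilutions; readout [3H]-hypoxanthine uptake; IC50 via Logit regression.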

[3] = system: chloroquine-resistant K1 strain of P. falciparum; test: In vitro antimalarial semiautomated microdilution assay ([3H]-hypoxanthine incorporation), K1 strain; format: cell-based, Plasmodium falciparum; details: Plasmodium falciparum
Outline: as §1

[4] = system: ANKA strain of P. berghei; test: Single dose STI in vivo screen in infected mice; design: species or system Plasmodium berghei; details: for Survival (days) 10 mg/kg po: single 10 mg/kg po in 3% ethanol and 7% Tween 80; for Survival (days) 10 mg/kg po / Survival (days) 10 mg/kg SSV po / Survival (days) 10 mg/kg sc: untreated 6-7 days; for Activity (%) 10 mg/kg po: single 10 mg/kg po in 3% ethanol and 7% Tween 80 on day 1 post-infection; for Survival (days) 10 mg/kg SSV po: single 10 mg/kg po in SSV; for Activity (%) 10 mg/kg SSV po: single 10 mg/kg po in standard suspending vehicle (SSV) on day 1 post-infection; for Survival (days) 10 mg/kg sc: single 10 mg/kg sc in 3% ethanol and 7% Tween 80; for Activity (%) 10 mg/kg sc: single 10 mg/kg sc in 3% ethanol and 7% Tween 80 on day 1 post-infection
[5] = 49-day-old adults, total worm reduction rate
[6] = percentage of dead worm in the liver
[7] = K1, 72 h, read-out: IC50 (ng/ml) K1, chloroquine-resistant K1 strain, 72 h incubation
[8] = percent reduction in parasitemia on day 3, 10 mg/kg
[9] = NF54, 72 h, read-out: IC50 (ng/ml) NF54, chloroquine-sensitive NF54 strain, 72 h incubation
[10] = percent reduction in parasitemia on day 3
[11] = chloroquine-sensitive NF54 strain, 72 h incubation, read-out: IC50 (ng/ml) NF54
[12] = chloroquine-resistant K1 strain, 72 h incubation, read-out: IC50 (ng/ml) K1

Row | SMILES | % reduction of adult worms growth at day 49 after per os application of 400 mg/kg, TWR (%) [1, 5] [%] | Adult worms day 49, per os 400 mg/kg, DEAD WORM (%) [1, 6] [%] | Survival (days) 10 mg/kg po [4] [days] | Activity (%) 10 mg/kg po [4, 10] [%] | Survival (days) 10 mg/kg SSV po [4] [days] | Activity (%) 10 mg/kg SSV po [4, 10] [%] | Survival (days) 10 mg/kg sc [4] [days] | Activity (%) 10 mg/kg sc [4, 10] [%] | other results
1 | CC(=O)N1CCC2(CC1)OOC1(O2)C2CC3CC(C2)CC1C3 (stereo not shown) [OZ49] | 17 | 10 | – | – | – | – | – | – | –
2 | CCS(=O)(=O)N1CCC2(CC1)OOC1(O2)C2CC3CC(C2)CC1C3 (stereo not shown) [OZ79] | 4 | 0 | – | – | – | – | – | – | –
3 | CC1(C)COC(c2ccc([C@H]3CC[C@]4(CC3)OOC3(O4)C4CC5CC(C4)CC3C5)cc2)=N1 (stereo partly shown) [OZ154] | 58 | 0 | – | – | – | – | – | – | IC50 (ng/ml) NF54 ([2]; chloroquine-sensitive NF54 strain, 72 h incubation): 6.1 ng/mL (≈ 0.0139 µM); IC50 [3, 7]: 5 ng/mL (≈ 0.0114 µM); Survival (days) 10 mg/kg po ([4]; 10 mg/kg): 14.7 days; Activity (%) 10 mg/kg po [4, 8]: 99.74%; Survival (days) 10 mg/kg SSV po ([4]; 10 mg/kg): 8.7 days; Activity (%) 10 mg/kg SSV po [4, 8]: 81%; Survival (days) 10 mg/kg sc ([4]; 10 mg/kg): 7.7 days; Activity (%) 10 mg/kg sc [4, 8]: 59%
4 | O=C(C[C@H]1CC[C@]2(CC1)OOC1(O2)C2CC3CC(C2)CC1C3)N1CCOCC1 (stereo partly shown) [OZ189] | 0 | 30 | 9.3 | 95 | 9.0 | 99.79 | 10.7 | 98 | IC50 [2, 9]: 3 ng/mL (≈ 0.00766 µM); IC50 [3, 7]: 1.7 ng/mL (≈ 0.00434 µM)
5 | O=C(OC[C@H]1CC[C@]2(CC1)OOC1(O2)C2CC3CC(C2)CC1C3)N1CCN(c2ccccc2)CC1 (stereo partly drawn) [OZ148, cis-Adamantane-2-spiro-3′-1′,2′,4′-trioxaspiro[4.5]decane-8′-methyl 4-phenylpiperazine-1-carboxylate] | 25 | 0 | 7.3 | 38 | 7.7 | 58 | 6.3 | 21 | IC50 [2, 11]: 16 ng/mL (≈ 0.0332 µM); IC50 [3, 12]: 17 ng/mL (≈ 0.0352 µM)
6 | O=C(C1CCCCC1)N1CC(=O)N2CCc3ccccc3C2C1 (stereo not shown) [PRAZIQUANTEL, praziquantel, reference compound] | 93 | 89 | – | – | – | – | – | – | % reduction of adult worms growth at day 49 after per os application of 600 mg/kg, TWR (%) ([1]; single 600 mg/kg per os, 49-day-old adults, total worm reduction rate): 100/100%; Adult worms day 49, per os 600 mg/kg, DEAD WORM (%) ([1]; single 600 mg/kg per os, percentage of dead worm in the liver): 100/100%
7 | CCOC(=O)CC1CCC2(CC1)OOC1(O2)C2CC3CC(C2)CC1C3 (stereo not shown) [OZ61] | 8 | 21 | – | – | – | – | – | – | –
8 | CCN(CC)CC[C@H]1CC[C@]2(CC1)OOC1(O2)C2CC3CC(C2)CC1C3 (stereo partly shown) [OZ126] | 0 | 9 | 7.0 | 55 | 6.7 | 72 | 8.5 | 99.44 | IC50 [2, 11]: 0.5 ng/mL (≈ 0.00138 µM); IC50 [3, 12]: 0.2 ng/mL (≈ 0.00055 µM)
9 | O=C(O)C1CCC2(CC1)OOC1(O2)C2CC3CC(C2)CC1C3 (stereo not shown) [OZ72] | 0 | – | – | – | – | – | – | – | Adult worms day 49, per os 400 mg/kg, DEAD WORM (%) ([1]; percentage of dead worm in the liver, listed as OZ 72): 10%
10 | O=S1(=O)CCC2(CC1)OOC1(O2)C2CC3CC(C2)CC1C3 (stereo not shown) [OZ50] | 12 | 4 | – | – | – | – | – | – | –
11 | Clc1ccc(C2(c3ccc(Cl)cc3)OOC3(O2)C2CC4CC(C2)CC3C4)cc1 (stereo not shown) [OZ43] | 1 | 0 | – | – | – | – | – | – | –
12 | O=[N+]([O-])c1cccc(C2(c3cccc([N+](=O)[O-])c3)OOC3(O2)C2CC4CC(C2)CC3C4)c1 (stereo not shown) [OZ105, Adamantane-2-spiro-3′-5′,5′-bis(3′-nitrophenyl)-1′,2′,4′-trioxolane] | 8 | 0 | 5.7 | 16 | 5.7 | 0 | 6.3 | 28 | IC50 [3, 7]: 5.4 ng/mL (≈ 0.0123 µM)
13 | c1ccc(C2CCC3(CC2)OOC2(O3)C3CCCC2CCC3)cc1 (stereo not shown) [OZ67] | 38 | 0 | – | – | – | – | – | – | –
14 | O=C(CO)N1CCC2(CC1)OOC1(O2)C2CC3CC(C2)CC1C3 (stereo not shown) [OZ83] | 7 | 19 | – | – | – | – | – | – | –
15 | c1ccc(C2(c3ccccn3)OOC3(O2)C2CC4CC(C2)CC3C4)nc1 (stereo not shown) [OZ81] | 28 | 0 | – | – | – | – | – | – | –
16 | OC1(c2ccc(F)cc2)CCC2(CC1)OOC1(O2)C2CC3CC(C2)CC1C3 (stereo not shown) [OZ76] | 32 | 0 | – | – | – | – | – | – | –
17 | N=C(N)N1CCC2(CC1)OOC1(O2)C2CC3CC(C2)CC1C3 (stereo not shown) [OZ191, Adamantane-2-spiro-3′-8′-amidino-1′,2′,4′-trioxa-8′-azaspiro[4.5]decane hydrochloride] | – | – | 5.7 | 7 | 5.7 | 5 | 6.0 | 17 | IC50 [2, 9]: > 10 ng/mL; IC50 [3, 7]: 6 ng/mL
18 | O=C(C[C@H]1CC[C@]2(CC1)OOC1(O2)C2CC3CC(C2)CC1C3)Nc1nccs1 (stereo partly shown) [OZ217] | – | – | 7.0 | 67 | 6.0 | 8 | 8.0 | 98 | IC50 [2, 11]: 2 ng/mL (≈ 0.00494 µM); IC50 [3, 12]: 2 ng/mL (≈ 0.00494 µM)
19 | CC1(C)COC2(CCC3(CC2)OOC2(O3)C3CCCC2CCC3)OC1 (stereo not shown) [OZ68] | 17 | 0 | – | – | – | – | – | – | –
20 | O=S(=O)(C[C@H]1CC[C@]2(CC1)OO[C@]1(O2)C2CC3CC(C2)CC1C3)c1ncccn1 [OZ299] | – | – | – | – | 6.6 | 36 | – | – | IC50 [2, 9]: 6.3 ng/mL (≈ 0.015 µM); IC50 [3, 7]: 6.8 ng/mL (≈ 0.0162 µM); Survival (days) 3 mg/kg SSV po ([4]; single 3 mg/kg po in SSV): 6.4 days; Activity (%) 3 mg/kg SSV po ([4]; single 3 mg/kg po in SSV, percent reduction in parasitemia on day 3): 0%
